Results as given in patent US9863937B2, “Fluorescent molecular rotors” (Agency for Science, Technology and Research, priority 2012, dated 2018).
“Also recorded” adds a separate entry of the source.

Key:
plasmid DNA = experiment: Rotor fluorescence with plasmid DNA; type: binding; settings: 100 uM rotor, 5 ug plasmid DNA
Description: 100 uM of Sybr green, Pyrene or CCVJ rotors were each added to either 5 ug plasmid DNA, 5 ug DNA with 500 mM NaOH, or PBS buffer only. Resulting fluorescence for each reaction mixture were then compared across the respective filters (Sybr 497/520, Pyrene 376/530, Julolidine 433/505).

[1] = biological target: p53 protein binding to DNA (Homo sapiens, UniProt P04637); experiment: Fluorescence change of DNA-bound rotor on addition of p53 protein
Description: For the third set with DNA and p53, 1×PBS buffer and p53 6× binding buffer were first added to the wells. Subsequently, rotor was added and DNA was added. The combined solutions were mixed in each well and allowed to incubate in the dark at room temperature for half an hour before p53 was added. The combined solutions were then allowed to incubate in the dark at room temperature for another half an hour before data on fluorescence intensity was gathered.
6× binding buffer consists: 150 mM sodium phosphate buffer, 600 uM KCl, 24 mM DTT.
(§1) Measurements were taken using Greiner 384 black flat-clear-bottom for 18 uL mixtures, Corning 96 flat-black half-area for 80 uL and 100 uL mixtures, and Tecan Infinite M-1000 Spectrophotometer.

[2] = tested on: p53 binding sequence duplex DNA; experiment: Rotor fluorescence with p53 binding sequence duplex DNA (intercalation); settings: FIG. 7
Description: For the first set with DNA only, 1×PBS buffer and p53 6× binding buffer were first added to the wells. Subsequently, rotor was added. Lastly, DNA was added. The combined solutions were mixed in each well and allowed to incubate in the dark at room temperature for, half an hour before data on fluorescence intensity was gathered.
as §1

streptavidin = streptavidin (Streptomyces avidinii, UniProt P22629); experiment: Fluorescence of rotor-biotin conjugate on addition of streptavidin; type: binding
Description: FIG. 4a depicts the emission spectra of a CCVJ molecular rotor bound to biotin with Streptavidin. […] 40 μM of rotor-biotin conjugate was incubated for 15 min with 50 μg of streptavidin. Fluorescence emission spectrum was measured using an excitation wavelength (λex) of 433 nm.

MDM2 = MDM2 (Homo sapiens, UniProt Q00987); settings: unconjugated peptide, Table 9; ITC; read-out: Previously reported Kd value; cited from earlier work
Chain of MDM2 (Q00987 whole entry): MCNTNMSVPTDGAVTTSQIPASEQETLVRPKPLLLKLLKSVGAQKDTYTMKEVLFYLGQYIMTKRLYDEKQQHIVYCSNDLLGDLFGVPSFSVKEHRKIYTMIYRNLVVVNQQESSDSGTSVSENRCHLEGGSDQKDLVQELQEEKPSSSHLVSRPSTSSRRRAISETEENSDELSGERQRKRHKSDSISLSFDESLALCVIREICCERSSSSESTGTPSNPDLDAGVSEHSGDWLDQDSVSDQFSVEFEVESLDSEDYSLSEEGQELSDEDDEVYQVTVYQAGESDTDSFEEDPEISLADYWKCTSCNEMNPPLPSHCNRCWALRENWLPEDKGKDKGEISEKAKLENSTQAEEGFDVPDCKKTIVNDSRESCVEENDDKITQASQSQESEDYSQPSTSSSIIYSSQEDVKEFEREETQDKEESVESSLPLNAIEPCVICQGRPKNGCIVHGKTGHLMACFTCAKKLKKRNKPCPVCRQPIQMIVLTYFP

Chain of p53 protein binding to DNA (P04637 whole entry): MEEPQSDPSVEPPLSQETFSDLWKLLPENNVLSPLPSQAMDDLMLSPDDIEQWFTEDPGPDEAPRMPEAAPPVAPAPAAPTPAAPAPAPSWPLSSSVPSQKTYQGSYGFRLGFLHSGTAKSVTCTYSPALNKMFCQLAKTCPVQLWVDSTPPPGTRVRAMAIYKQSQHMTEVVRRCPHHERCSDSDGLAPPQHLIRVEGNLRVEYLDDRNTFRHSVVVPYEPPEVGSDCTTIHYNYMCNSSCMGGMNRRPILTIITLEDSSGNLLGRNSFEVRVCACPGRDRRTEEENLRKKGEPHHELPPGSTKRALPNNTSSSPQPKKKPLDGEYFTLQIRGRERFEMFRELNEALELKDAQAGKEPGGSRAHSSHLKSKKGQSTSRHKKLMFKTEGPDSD
Chain of streptavidin (P22629 25-183, species assumed): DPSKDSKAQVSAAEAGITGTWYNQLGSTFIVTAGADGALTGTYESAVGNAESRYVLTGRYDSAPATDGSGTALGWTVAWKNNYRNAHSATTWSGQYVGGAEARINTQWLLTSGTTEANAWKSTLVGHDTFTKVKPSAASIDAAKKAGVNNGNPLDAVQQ

## N#C/C(=C\c1cc2c3c(c1)CCCN3CCC2)C(=O)O [CCVJ, 9-(2-carboxy-2-cyanovinyl) julolidine]
Plasmid DNA
  Fluorescence signal with plasmid DNA: weak signal

## CN(C)c1ccc2cc3ccc(N(C)C)c(/C=C(\C#N)C(=O)O)c3nc2c1 [acridine-based rotor]
[1]
  Fluorescence change when p53 is added to DNA-bound rotor: decreased fluorescence signal; also recorded: fluorescence intensity dropped
[2]
  Rotor:DNA ratio at saturation of fluorescence intensity: 0.5 × rotor

## N#C/C(=C\c1cc2c3c(c1)CCCN3CCC2)C(=O)OCCNC(=O)CCCCC1SCC2NC(=O)NC21 (centres unmarked) [biotin-rotor probe]
streptavidin; 40 μM conjugate, 50 μg streptavidin, 15 min
  Fluorescence increase on addition of streptavidin: 2 fold

## C[n+]1ccc(/C=C/c2ccc3c(c2)c2cc(/C=C/c4cc[n+](C)cc4)ccc2n3-c2ccccc2)cc1 [carbazole-based (2-arm) rotor, 4,4′-((1E,1′E)-(9-phenyl-9H-carbazole-3,6-diyl)bis(ethene-2,1-diyl))bis(1-methylpyridin-1-ium)]
[1]
  Fluorescence change when p53 is added to DNA-bound rotor: turn-off effect
[2]
  Rotor:DNA ratio at saturation of fluorescence intensity: 15 × rotor

## C[n+]1ccc(/C=C/c2ccc(-n3c4ccc(/C=C/c5cc[n+](C)cc5)cc4c4cc(/C=C/c5cc[n+](C)cc5)ccc43)cc2)cc1 [carbazole-based (3-arm) rotor, 4,4′-((1E,1′E)-(9-(4-((E)-2-(1-methylpyridin-1-ium-4-yl)vinyl)phenyl)-9H-carbazole-3,6-diyl)bis(ethene-2,1-diyl))bis(1-methylpyridin-1-ium)]
[2]
  Rotor:DNA ratio at saturation of fluorescence intensity: 15 × rotor

## N#C/C(=C\c1ccc2ccc3cccc4ccc1c2c34)C(=O)O [pyrene-based molecular rotor]
streptavidin; FIG. 4b
  Fluorescence change on binding to streptavidin: fluorescence increase

## C[n+]1c(/C=C2/C=CN(CCCN)c3ccccc32)sc2ccccc21 [thiazole-based rotor]
[2]
  Rotor:DNA ratio at saturation of fluorescence intensity: 15 × rotor

## MPRFMDYWEGLNK [JP2]
MDM2
  Kd: 0.24 ± 0.0538 µM

## MPRFMDYWEGLSK [JP1]
MDM2
  Kd: 0.0188 ± 0.00503 µM
